Assay results taken from article PMC11983575, “Study on the synthesis and biological activity of kojic acid triazol thiosemicarbazide Schiff base derivatives” (Journal of Enzyme Inhibition and Medicinal Chemistry, 2025).

Legend:
[1] = target: T1, mushroom tyrosinase (Agaricus bisporus, UniProt C7FF04); experiment: In vitro mushroom tyrosinase inhibition (L-DOPA substrate); assay type: biochemical; settings: 475 nm, read-out: IC50 (μM) ± SD, inhibitory tyrosinase activity
Method: The mushroom tyrosinase inhibitory activity was determined according to previous described method. Briefly, 168 μl of phosphate buffer (0.1 M, pH 6.8), 10 μl of mushroom tyrosinase (0.5 mg/ml, Sigma Chemical, St. Louis, MO) and 2 μl of the inhibitor solution were placed in the wells of a 96-well micro plate. After pre-incubation for 20 min at 37 °C, 20 μl of 2.0 mg/ml L-DOPA (3,4-dihydroxyphenylalanine, Sigma Chemical, St. Louis, MO) was added and the enzyme activity was measured at 475 nm every 60 s for 180 s in a Microplate Reader (Bio-Rad Laboratories, Inc., Hercules, CA). Kojic acid and phosphate buffer were respectively used as positive and negative control. The extent of inhibition by the test compounds was expressed as the percentage of concentration necessary to achieve 50% inhibition (IC50). The percentage of inhibition was calculated as follows: inhibitory rate (%) = [Ac − At)/Ac] × 100. Ac is the absorbance of the negative control and At is the absorbance of the test compound. Each concentration was analysed in three independent experiments run in triplicate. The IC50 values were determined by the data analysis software GraphPad Prism 8 (La Jolla, CA).
The tyrosinase inhibition measurements of compounds 6a–6x were carried out using L-DOPA as substrate. Kojic acid was selected as a positive control compound. […]. […] Moreover, inhibitory activity of compound with hydroxyl group at papa position is better than the inhibitory activity of compound with hydroxyl group at meta position, and inhibitory activity of compound with hydroxyl group at meta position is better than the inhibitory activity of compound with hydroxyl group at ortho position. […]. […] In addition, with the increase of atomic radius, the inhibitory activity gradually decreases. (3) The inhibitory activity of alkoxy substituted compound is better than that of alkyl substituted compound. (4) Comparing the tyrosinase inhibitory activity of compounds with halogen atom (6b–6d, 6q–6s) and compounds with methyl or methoxy (6e–6f, 6t–6u), when the hydrogen (R^2) was replaced by the methyl (R^2), the inhibitory activity was decreased.

[2] = target: T1, mushroom tyrosinase; experiment: Tyrosinase kinetic analysis (Lineweaver-Burk plots); assay type: biochemical
Method: To study the inhibition type of kojic acid-triazole derivatives, the investigation of inhibitory type of selected compound 6w on mushroom tyrosinase was carried out according to reported protocol. Compound 6w was used at the concentrations of […], respectively. Substrate L-DOPA concentration was between 500 µM and 1000 µM in the process of all kinetic study. Pre-incubation time and measurement time were the same as described in mushroom tyrosinase inhibition assay procedure. Lineweaver–Burk’s plots of inverse of velocities (1/V) versus inverse of substrate concentration 1/[S] µM^−1 were used to determine the type of enzyme inhibition.
Among the assessed kojic acid triazol thiosemicarbazide Schiff base derivatives, compound 6w expressed better tyrosinase inhibitory activity than the other compounds, in order to further explore the inhibition mechanism, the inhibitory type of the compound 6w on mushroom tyrosinase was decided by the Lineweaver–Burk double reciprocal plots. The Lineweaver–Burk plots were obtained by different concentrations of the compound 6w and the substrate (Figure 2(A)). The plots of 1/V versus 1/[S] gave a family of straight lines with different slopes. […] All of the straight lines intersected at a point in the second quadrant. […] The inhibition constant (Ki) of the compound was obtained by a plot of the slope versus the concentrations of the compound 6w, Kis of the compound was obtained by a plot of vertical intercept (1/Vm) versus the concentrations of the compound 6w, the results were shown in Figure 2(B,C). […] Compound 6w has a better binding with free enzyme.
Figure 2. Kinetic inhibition measurement of compound 6w. […] (A) The concentrations of compound 6w in the figure were 0, 0.5 μM, 1 μM, and 2 μM, respectively. (B) The secondary replot indicates the intercept versus the concentrations of compound 6w to define the inhibition constant Kis. (C) The secondary replot indicates the slope versus the concentrations of compound 6w to define the inhibition constant Ki.

[3] = DPPH free radical scavenging activity assay; settings: DPPH 150 μM, 30 min, 517 nm; read-out: DPPH/IC50 (μM) ± SD
Method: The anti-oxidation effect on DPPH radical was determined by a slightly modified version of a previously described DPPH radical scavenging assay. Reaction mixtures consisted of 100 μl of DPPH (150 μM), 20 μl of increasing concentration of test compounds and the volume was adjusted to 200 μl in each well with DMSO. The assay solution was then incubated at room temperature (25 °C) for 30 min in the dark. After the incubation, absorbance at 517 nm was measured by using UV-2600 spectrophotometer. The experiments were undertaken in triplicate. DMSO was used as a control. Ascorbic acid was used as antioxidant standard for comparison of the activity. The calculation of DPPH radical scavenging activity was followed by this formula: DPPH radical scavenging activity %=absorbance of standard−absorbance of sample/Absorbance of standard×100

T1 sequence (C7FF04 1-392): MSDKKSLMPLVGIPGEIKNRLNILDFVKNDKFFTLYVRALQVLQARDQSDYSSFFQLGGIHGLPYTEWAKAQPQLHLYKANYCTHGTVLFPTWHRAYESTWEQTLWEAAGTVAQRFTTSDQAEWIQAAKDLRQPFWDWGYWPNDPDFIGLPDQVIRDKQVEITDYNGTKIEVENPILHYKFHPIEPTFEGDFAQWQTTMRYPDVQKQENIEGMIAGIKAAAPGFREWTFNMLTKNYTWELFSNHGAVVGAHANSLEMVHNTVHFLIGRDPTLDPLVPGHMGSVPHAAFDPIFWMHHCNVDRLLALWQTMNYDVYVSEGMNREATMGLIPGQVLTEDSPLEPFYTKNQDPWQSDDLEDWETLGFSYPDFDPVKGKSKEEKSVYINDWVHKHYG

With “2-(1-(4-((1-((5-Hydroxy-4-oxo-4H-pyran-2-yl)methyl)-1H-1,2,3-triazol-5-yl)methoxy)phenyl)ethylidene)hydrazinecarbothioamide [Compound 6w]” the IC50 [1] was 0.94 ± 0.035 µM, the inhibition type ([2]; Lineweaver-Burk double reciprocal plots) was “mixed type inhibitor” and the Ki ([2]; from plot of slope versus concentration of 6w, free enzyme, read-out: inhibition constant Ki) was 0.3 nM. For the same substance, the “inhibition constant Kis” value ([2]; from plot of vertical intercept (1/Vm) versus concentration of 6w) was 0.1997 µM and the IC50 [3] was 14.44 ± 0.077 µM.
